Counter-ions that a name gives are not always drawn.
What was measured:
KIT D816V = KIT D816V (Homo sapiens, UniProt P10721, D816V); assay: KIT (D816V) mutant biochemical enzymatic activity inhibition assay (EZReader 2 mobility shift) at APPKM for ATP; conditions: 0.3 nM enzyme, 20 μM ATP (APPKM), 1 μM Src tide, 25° C., 60 minutes; read-out: Kit D816V @ ATP Km IC50
Excerpt: PDGFRα and KIT enzymatic activity was monitored using the Perkin Elmer electrophoretic mobility shift technology platform, the EZReader 2.
Within the linear, steady-state phase of the kinase enzymatic reaction, the mixed pool of phosphorylated (product) and non-phosphorylated (substrate) peptides was passed through the microfluidic system of the PerkinElmer EZ Reader 2, under an applied electric potential difference. The presence of the phosphate group on the product peptide provided a difference in mass and charge between that of the substrate peptide, resulting in a separation of the substrate and product pools in the sample (Perrin et al., Expert Opin Drug Discovery 2010, Jan. 5(1):51-63).
As the product and substrate peptide mixture passes the lasers within the instrument, these pools are detected (λex=488 nm, λem=568 nm) and resolved as separate peaks. The ratio between these peaks reflects the activity of the compound at that concentration, in that well, under those conditions.
All test articles were dissolved in 100% DMSO at a stock concentration of 10 mM. A 100×, 10-point, 4-fold serial dilution of all test compounds was created in 100% DMSO, starting at a relevant concentration, usually 1 mM. A volume of 130 nL of each concentration was transferred to the relevant well of a 384-well assay plate (Greiner 781 201) using a TTPLabtech Mosquito nano-liter dispenser. Using the Multidrop, the remaining constituents of the reaction were then added to the 130 nL of compound as follows:
The reaction was stopped by the addition of 70 μl of Stop buffer (100 mM HEPES pH 7.5, 0.015% Brij 35, 35 mM EDTA and 0.2% of Coating Reagent 3, Caliper Lifesciences). The plate was read on a Caliper EZReader 2. For biochemical D816V and D842V activity, the following designations are used: ≤0.30 nM=A; ≥0.31 and <1.4 nM=B; ≥1.4 nM=C; and ND=not determined.

[1] = Brain penetration in rats: brain to plasma ratio (Kp,brain); format: in vivo; conditions: rat; Sprague-Dawley rats (3/compound), IV infusion 1 mg/kg/hr over 8 hours, plasma and brain homogenate at 24 hours, Cbrain/Cplasma, mean
Excerpt: To understand the brain penetration, brain to plasma ratios of the compounds were obtained in Sprague-Dawley (SD) rats. In vivo equilibrium distribution between blood and brain in preclinical species such as rats is a commonly used parameter to evaluate brain penetration. Kp,brain is the ratio of concentrations in brain and blood (Cbrain/Cplasma). The compound's passive diffusion characteristics, its affinity for membrane transporters at the blood-brain barrier (BBB), and the relative drug binding affinity differences between the plasma proteins and brain tissue influence the Kp,brain. Compounds with Kp,brain smaller than 0.1 have restricted access to the CNS, whereas compounds with Kp,brain greater than 0.3-0.5 are considered to have good brain penetration and compounds with Kp,brain greater than 1 freely cross the BBB (Expert Opin. Drug Delivery (2016) 13 (01): 85-92).
The brain penetration of the compounds disclosed herein was measured in Sprague-Dawley rats (3/compound). The animals received IV infusion of 1 mg/kg/hr of the compound over 8 hours via jugular vein cannulation. At 24 hours, blood was collected via tail vein bleeding or cardiac puncture (under anesthesia) and centrifuged to obtain plasma samples. Brain tissues were collected and homogenized with phosphate-buffered saline (PBS). […]

[2] = Unbound brain to plasma ratio (Kpuu,brain), from brain and plasma concentrations and equilibrium dialysis unbound fractions; format: in vivo, Sprague-Dawley rats; conditions: Sprague-Dawley, brain homogenate / plasma (unbound), intravenous, 1 mg/kg/hr; rat; calculated from brain and plasma concentrations and fu,brain (brain homogenate equilibrium dialysis), mean
Experimental: The brain penetration of the compounds disclosed herein was measured in Sprague-Dawley rats (3/compound). The animals received IV infusion of 1 mg/kg/hr of the compound over 8 hours via jugular vein cannulation. At 24 hours, blood was collected via tail vein bleeding or cardiac puncture (under anesthesia) and centrifuged to obtain plasma samples. Brain tissues were collected and homogenized with phosphate-buffered saline (PBS). The concentrations of the compounds were obtained in the plasma and brain homogenates by LC-MS/MS analysis.
Rat plasma protein binding of the tested compounds were evaluated in vitro using an equilibrium dialysis method. The tested compounds were assessed in 100% plasma in a dialysis block for 5 hours at 37° C. Samples from the donor and receiver sides were analyzed by LC-MS/MS. Plasma protein bound and unbound fractions were calculated using the following equations— […]
where: [Donor]5h is measured donor concentration at 5-hour; [Received]5h is measured receiver concentration at 5-hour; fb* is bound fraction determined from plasma; fu,p* is calculated unbound fraction for plasma. […]
Similarly, rat brain protein binding of the tested compounds was also evaluated in vitro using equilibrium dialysis method. […] of the compound was assessed in brain homogenate in a dialysis block for 5 hours at 37° C. Samples from the donor and receiver sides were analyzed by LC-MS/MS. […]

Sequence of KIT D816V (P10721 26-976 D816V): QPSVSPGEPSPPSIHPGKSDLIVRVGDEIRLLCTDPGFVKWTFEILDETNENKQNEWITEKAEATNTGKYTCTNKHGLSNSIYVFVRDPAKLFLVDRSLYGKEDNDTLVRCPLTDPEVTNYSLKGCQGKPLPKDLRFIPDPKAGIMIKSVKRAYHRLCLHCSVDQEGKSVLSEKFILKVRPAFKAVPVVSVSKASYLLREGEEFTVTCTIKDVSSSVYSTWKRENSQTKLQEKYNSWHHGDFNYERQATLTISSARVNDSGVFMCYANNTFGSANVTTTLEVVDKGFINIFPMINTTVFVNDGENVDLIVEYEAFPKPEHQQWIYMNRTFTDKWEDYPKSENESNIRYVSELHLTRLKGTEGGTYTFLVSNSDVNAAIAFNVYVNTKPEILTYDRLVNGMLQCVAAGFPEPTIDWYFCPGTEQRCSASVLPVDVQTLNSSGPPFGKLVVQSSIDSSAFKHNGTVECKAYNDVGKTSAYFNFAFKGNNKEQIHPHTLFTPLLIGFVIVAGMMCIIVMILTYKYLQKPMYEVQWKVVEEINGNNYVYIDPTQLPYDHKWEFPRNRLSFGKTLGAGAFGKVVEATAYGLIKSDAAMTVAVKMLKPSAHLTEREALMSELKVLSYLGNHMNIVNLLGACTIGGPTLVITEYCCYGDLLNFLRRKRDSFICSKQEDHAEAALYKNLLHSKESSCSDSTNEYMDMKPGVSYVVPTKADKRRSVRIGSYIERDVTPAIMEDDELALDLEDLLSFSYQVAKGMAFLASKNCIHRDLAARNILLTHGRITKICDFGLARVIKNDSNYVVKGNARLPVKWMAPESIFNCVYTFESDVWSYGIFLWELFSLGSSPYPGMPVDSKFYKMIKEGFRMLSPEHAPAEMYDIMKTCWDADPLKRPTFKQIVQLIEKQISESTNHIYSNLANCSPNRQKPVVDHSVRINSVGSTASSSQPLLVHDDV

| Structure (SMILES) | IC50 (KIT D816V) [nM] | Kp at 24 h [1] | Kp uu at 24 h [2] |
| --- | --- | --- | --- |
| C[C@](N)(c1ccc(F)cc1)c1cnc(C2=CCN(c3ncnn4cc(-c5cnn(CCO)c5)cc34)CC2)nc1 [Compound 1, (S)-2-(4-(4-(4-(5-(1-amino-1-(4-fluorophenyl)ethyl)pyrimidin-2-yl)-3,6-dihydropyridin-1(2H)-yl)pyrrolo[2,1-f][1,2,4]triazin-6-yl)-1H-pyrazol-1-yl)ethan-1-ol] | 0.31 to 1.4 | 0.133 | 0.017 |
| C[C@](N)(c1ccc(F)cc1)c1cnc(N2CCN(c3ncnc4[nH]c(-c5cnn(CCO)c5)cc34)CC2)nc1.Cl [Compound 2, (S)-2-(4-(4-(4-(5-(1-amino-1-(4-fluorophenyl)ethyl)pyrimidin-2-yl)piperazin-1-yl)-7H-pyrrolo[2,3-d]pyrimidin-6-yl)-1H-pyrazol-1-yl)ethan-1-ol hydrochloride] | ≤ 0.3 | 0.045 | 0.01 |
| C[C@](N)(c1ccc(F)cc1)c1cnc(N2CCN(c3ncnc4[nH]c(-c5cnn(CC6COC6)c5)cc34)CC2)nc1 [Compound 6, (S)-1-(4-fluorophenyl)-1-(2-(4-(6-(1-(oxetan-3-ylmethyl)-1H-pyrazol-4-yl)-7H-pyrrolo[2,3-d]pyrimidin-4-yl)piperazin-1-yl)pyrimidin-5-yl)ethan-1-amine hydrochloride] | 0.31 to 1.4 | – | – |

More lines, main results first:

| IC50 (KIT D816V) [nM] | Structure (SMILES) | Kp at 24 h [1] | Kp uu at 24 h [2] |
| --- | --- | --- | --- |
| 0.31 to 1.4 | C[C@H](O)Cn1cc(-c2cc3c(N4CCN(c5ncc([C@@](C)(N)c6ccc(F)cc6)cn5)CC4)ncnc3[nH]2)cn1 [Compound 5, (S)-1-(4-(4-(4-(5-((S)-1-amino-1-(4-fluorophenyl)ethyl)pyrimidin-2-yl)piperazin-1-yl)-7H-pyrrolo[2,3-d]pyrimidin-6-yl)-1H-pyrazol-1-yl)propan-2-ol hydrochloride] | – | – |
| ≤ 0.3 | C[C@](N)(c1ccc(F)cc1)c1cnc(N2CCN(c3ncnc4[nH]c(-c5cnn(C6COC6)c5)cc34)CC2)nc1 [Compound 3, (S)-1-(4-fluorophenyl)-1-(2-(4-(6-(1-(oxetan-3-yl)-1H-pyrazol-4-yl)-7H-pyrrolo[2,3-d]pyrimidin-4-yl)piperazin-1-yl)pyrimidin-5-yl)ethan-1-amine] | – | – |
| 0.31 to 1.4 | C[C@@H](O)Cn1cc(-c2cc3c(N4CCN(c5ncc([C@@](C)(N)c6ccc(F)cc6)cn5)CC4)ncnc3[nH]2)cn1 [Compound 4, (R)-1-(4-(4-(4-(5-((S)-1-amino-1-(4-fluorophenyl)ethyl)pyrimidin-2-yl)piperazin-1-yl)-7H-pyrrolo[2,3-d]pyrimidin-6-yl)-1H-pyrazol-1-yl)propan-2-ol] | – | – |

Reference: US20240010652A1, “COMPOSITIONS AND METHODS FOR TREATING KIT- AND PDGFRA-MEDIATED DISEASES” (Blueprint Medicines Corporation, priority 2020, published 2024)
